Results published in patent US20030232862A1 (priority 2002, published 2003).

Assays:
[1] = test system: HT-29 colon adenocarcinoma cells; assay: Apoptosis by DNA fragmentation assay in HT-29 cells; format: cell-based, human; conditions: Table 9 qualitative profile; note: key: −: Not active; +: Slightly active; + +: Moderately active; + + +: Strongly active; + + + +: Highly active
HT-29 cells = assay: Growth inhibition of HT-29 cells (SRB assay; trypan blue counting in time course); format: cell-based, human; conditions: Table 9 qualitative profile
[2] = test system: PKG activity in HCT116 colon cancer cells; assay: PKG activity assay in drug-treated HCT116 cells; format: cell-based
From the text: To test the effect of cGMP-specific PDE inhibition on neoplasia containing the β-catenin mutation, HCT116 colon cancer cells were employed. HCT116 is known to contain the β-catenin mutation, but is known not to contain the APC mutation.
The same procedure is used to grow the HCT116 cells as is used in the SW480 procedure described above. In this experiment, only exisulind and controls were used.

CC1=C(CC(=O)O)c2cc(F)ccc2/C1=C\c1ccc(S(C)(=O)=O)cc1 [Exisulind, 5-fluoro-2-methyl-1-(p-methylsulfonylbenzylidene)-3-indenylacetic acid]
Apoptosis [1]: + + | Growth Inhibition (HT-29 cells): + + | PKG activation relative to control [2]: PKG activation occurred
